# From EP3839043A1, “SCREENING METHODS FOR COMPOUNDS MODULATING POLYAMINE TRANSPORT” (Katholieke Universiteit Leuven, priority 2019, dated 2021)
# System: isolated mouse cortical neurons
# Test: TUNEL staining of SPM-treated primary neurons
# Type: cell-based
# Conditions: CA-074 10 µM; SPM 10 µM, 24 h; Atp13a2 knockdown neurons
# From the text: Neuron isolation - Primary cortical neurons were derived from E16 FVB/N mice embryos. Pregnant mice were sacrificed on gestation day 16 by cervical dislocation. E16 mice pup brains were collected and placed in a dish containing calcium- and magnesium-free Hanks' Balanced Salt Solution (HBSS, Life Technologies, 14180-046) on ice. Both cerebral hemispheres were separated from the cerebellum. Meninges were removed from the cerebral hemispheres and the brain cortices dissected. Brain cortices were collected, washed twice and digested with 0.05% trypsin (Life Technologies, 25300-054, 10 min at 37°C). Trypsin reaction was terminated by the addition of 7 ml HBSS and 1 ml of horse serum. Cells were separated by pipetting and filtration through a cell strainer (40 µm, Falcon, 352340). Cells were centrifuged at 1,000 rpm for 5 min (4°C), the supernatant discarded and the pellet suspended in 5 ml Dulbecco's Modified Eagle Medium (DMEM; Sigma-Aldrich, D6546) containing GlutaMAX (Life Technologies, 31966-021) containing 5% horse serum (Life Technologies, 26050-088) and 20 mM glucose (Sigma-Aldrich, 8270). Primary cortical neurons were plated in 12 well plates, on cover slips coated with poly-D-lysine (Sigma-Aldrich, P6407). […]
# TUNEL staining - TUNEL staining was assessed according to the manufacturer's protocol for the Click-iT Plus TUNEL assay (ThermoFisher, C10617). […]
smiles,measurement,value
CCCNC(=O)[C@H]1O[C@@H]1C(=O)N[C@H](C(=O)N1CCC[C@H]1C(=O)O)[C@@H](C)CC [CA-074],SPM-induced neuronal death (TUNEL positivity),rescues SPM-induced neuronal death
